Data reported in US6211155A, “Peptide conjugates derived from thymic hormones, their use as a medicament and compositions containing them” (Institut European de Biologie Cellulaire, priority 1995, dated 2001).
Where no end group is shown, it is not given here.

Key:
Ia+ Langerhans cells = experiment: Ia+ Langerhans cell density after topical application to mouse ear; format: in vivo, C57-BL/6 mice; settings: for Number of Ia+ cells per mm^2 of epidermis, batch 1 / Number of Ia+ cells per mm^2 of epidermis, batch 2 / Number of Ia+ cells per mm^2 of epidermis, batch 3 / Number of Ia+ cells per mm^2 of epidermis, batch 4 / Number of Ia+ cells per mm^2 of epidermis, Mean: C 57 BL/6 mice; for Number of Ia+ cells per mm^2 of epidermis, Mean: 4 batches; for Ia+ cells %: relative to PG controls
Method: (§1) I--Experimental Samples--Code: ETF
(§2) In solution in propylene glycol at a concentration of 10^-5 M/ml
(§3) 5 to 7-week-old male C 57-BL/6 mice, which are divided into groups of 4 per cage, and which have free access to water and food and which are subjected to a photoperiod of 12 h of light per 24 hours, are given a topical application of the peptide in propylene glycol (50 μl vol) on the dorsal surface of the ear daily for 5 consecutive days.
(§4) The animals are sacrificed on day 6. The ears are removed, with the dorsal and ventral surfaces being separated.
(§5) The tissues of the dorsal surface are immersed in Na EDTA (0.020 M) at 37° C. for 2 h.
(§6) After incubation, the epidermis is removed in the form of an intact sheet, fixed with acetone and rehydrated in PBS (phosphate buffer).
(§7) The Thy 1-2+ and Ia+ EDC (epidermal dendritic cells) are identified by indirect immunofluorescence double labeling.
(§8) In the case of each epidermal sheet, the number of cells per mm^2 is determined using the peripheral regions of the same surface.
The EDC (epidermal dendritic cells) carrying the Ia+ marker were identified using an anti-Ia+ monoclonal antibody.
The epidermal sheets are fixed with acetone and then incubated, at 37° C. for 1 h, in the presence of the anti-Ia+ monoclonal antibody, which has been labeled by the indirect immunoperoxidase method (Kit).
After having been incubated at 37° C. for 10 minutes with a solution of aminoethylcarbazole, the preparation is washed with PBS.
(§9) In the case of each epidermal sheet, the number of Ia+ Langerhans cells or Thy 1.2+ EDCs per square millimeter was determined by means of immunofluorescence, using a confocal Zeiss microscope which was equipped for this purpose, in four peripheral areas of the same surface. At least four animals were studied in each of the groups. The density of Ia+ Langerhans cells and Thy 1.2+ EDCs is shown for each measurement.

[1] = system: Thy 1.2+ thymocytes of the epidermis; experiment: Thy 1.2+ epidermal cell density after topical application to mouse ear (immunofluorescence); format: in vivo, C57-BL/6 mice; settings: for Number of Thy 1.2+ cells per mm^2 of epidermis, batch 1 / Number of Thy 1.2+ cells per mm^2 of epidermis, batch 2 / Number of Thy 1.2+ cells per mm^2 of epidermis, batch 3 / Number of Thy 1.2+ cells per mm^2 of epidermis, batch 4 / Number of Thy 1.2+ cells per mm^2 of epidermis, Mean: C 57 BL/6 mice; for Number of Thy 1.2+ cells per mm^2 of epidermis, Mean: 4 batches; for Thy 1.2+ cells % T: relative to PG controls
Method: as §1, §2, §3, §4, §5, §6, §7, §8
The Thy 1.2+ EDC were identified by indirect immunofluorescence double labeling. The epidermal sheets were fixed with acetone and then rehydrated in PBS.
The tissues were labeled simultaneously, at 4° C. for 16 h, with mouse anti-Thy 1.2+ antibody which was diluted 1:100. The tissue samples were washed three times in PBS for 60 min and then incubated, at 37° C. for 60 min, either with goat antimouse antibody which was coupled to rhodamine and diluted 1:20, or with goat antirabbit antibody which was coupled to fluorescein (fluorescine and diluted 1:20 in PBS. The tissues were then washed in PBS before being mounted as previously described.
as §9

[2] = system: normal human keratinocytes; experiment: Synthesis of 46-47 KD keratin by human keratinocytes in primary culture; format: cell-based; settings: compared with a control
Method: (§10) Culture of normal human keratinocytes
(§11) The epidermis is then dissociated under gentle mechanical action, or enzymically, in order to obtain the individual cells. Only the basal cells are capable of multiplying in vitro.
(§12) The culture is carried out at 37° C. in a controlled moist atmosphere ([…] --5% CO2).
(§13) In monolayer culture, the calcium concentration is between 0.05 and 0.1 mM. […] The synthesis of the keratinocytes is maintained. The intercellular spaces are wide: cell connections are maintained by microvillosities and not by tight junctions. While the tonofilaments of the perinuclear space can be seen, they are still not attached to the anchoring plaques.
(§14) Stratification can be induced by increasing the final calcium concentration in the culture medium to 1.2 mM. The formation of desmosomes then appears after 2 hours.
(§15) I ETF derivative No. IX, which has been lyophilized
in Dextran (40 g/l) and which is at a concen-
tration of 10^-6 M in the final culture medium.
II Crist. SIGMA thymopoietin - at a concentration of
10^-6 M in the final culture medium.
(§16) Human keratinocytes are cultured as described by Henning et al. (1983) or Fuchs et al. (1981). Air/liquid cultures are also carried out using the following methodology.
The cell markers which are selected are the low-molecular-weight 46/47 KD keratins, which are specific for the growth and cell differentiation of the germinative cells.
(§17) Indirect fluorescent labeling by the sandwich technique--48 hours after adding calcium to the culture medium (stratification).
rat antihuman 46-47 KD keratin antibody
FITC-labeled mouse antirat Ig G2 antibody.
(§18) Use of immunofluorescence, with graphic recording, for measuring cell markers.
(§19) Spectrofluorometric assays
(§20) "Perkin Elmer LS-50 B spectrofluorimeter".
(§21) on cell homogenate supernatants.
(§22) LOWRY technique using a Perkin Elmer UV spectrophotometer (cell homogenate supernatants).
(§23) The fluorescence intensity of the cells treated with ETF No. IX is assessed in comparison with the fluorescence intensity of the controls.

[3] = system: normal human keratinocytes; experiment: Synthesis of keratohyalin (filaggrin) by human keratinocytes in primary culture; format: cell-based; settings: for Stimulation % (keratohyalin synthesis): compared with a control; for Keratin/protein mean (keratohyalin synthesis, Table III): proteins expressed in micrograms/ml
Method: as §10, §11, §12, §13, §14, §15
in Dextran (40 g/l) and which is at a concen- […]
II Crist. SIGMA thymopoietin - at a concentration of […]
as §16
The filaggrins are markers of keratohyalin.
as §17
human antikeratohyalin (filaggrin) antibody
FITC-labeled goat antihuman Ig G antibody.
as §18, §19, §20, §21, §22, §23

Question: For “A-Pyr-Ala-Lys-Ser-Gln-Gly-Gly-Ser-Asn-NH2 (AKSQGGSN; not fully specified (N-terminus, C-terminus); printed as A-Pyr-Ala-Lys-Ser-Gln-Gly-Gly-Ser-Asn-NH2) [ETF-I, A of the tested sample not restated]”, which “Number of Ia+ cells per mm^2 of epidermis, batch 1” value (Ia+ Langerhans cells; dose 0.10 Nanog.) is on record?
Answer: Its value is 368 cells per mm^2.

Question: And the “Number of Ia+ cells per mm^2 of epidermis, batch 2” value (Ia+ Langerhans cells; dose 0.10 Nanog.)?
Answer: The value was 388 cells per mm^2.

Question: What about the “Number of Ia+ cells per mm^2 of epidermis, batch 3” value (Ia+ Langerhans cells; dose 0.10 Nanog.) of the same substance?
Answer: The value was 378 cells per mm^2.

Question: And the “Number of Ia+ cells per mm^2 of epidermis, batch 4” value (Ia+ Langerhans cells; dose 0.10 Nanog.)?
Answer: Its value is 395 cells per mm^2.

Question: What about the “Number of Ia+ cells per mm^2 of epidermis, Mean” value (Ia+ Langerhans cells; dose 0.10 Nanog.) of the same substance?
Answer: The value was 382.25 cells per mm^2.

Question: What about the “Ia+ cells %” value (Ia+ Langerhans cells; dose 0.10 Nanog.) of the same substance?
Answer: Its value is 273%.

Question: And the “Number of Ia+ cells per mm^2 of epidermis, batch 1” value (Ia+ Langerhans cells; dose 0.50 Nanog.)?
Answer: The value was 360 cells per mm^2.

Question: And the “Number of Ia+ cells per mm^2 of epidermis, batch 2” value (Ia+ Langerhans cells; dose 0.50 Nanog.)?
Answer: The value was 392 cells per mm^2.

Question: What about the “Number of Ia+ cells per mm^2 of epidermis, batch 3” value (Ia+ Langerhans cells; dose 0.50 Nanog.) of the same substance?
Answer: Its value is 386 cells per mm^2.

Question: And the “Number of Ia+ cells per mm^2 of epidermis, batch 4” value (Ia+ Langerhans cells; dose 0.50 Nanog.)?
Answer: The value was 399 cells per mm^2.

Question: And the “Number of Ia+ cells per mm^2 of epidermis, Mean” value (Ia+ Langerhans cells; dose 0.50 Nanog.)?
Answer: The value was 384.25 cells per mm^2.

Question: What about the “Ia+ cells %” value (Ia+ Langerhans cells; dose 0.50 Nanog.) of the same substance?
Answer: The value was 275%.

Question: And the “Number of Ia+ cells per mm^2 of epidermis, batch 1” value (Ia+ Langerhans cells; dose 1.00 Nanog.)?
Answer: The value was 372 cells per mm^2.

Question: What about the “Number of Ia+ cells per mm^2 of epidermis, batch 2” value (Ia+ Langerhans cells; dose 1.00 Nanog.) of the same substance?
Answer: The value was 410 cells per mm^2.

Question: What about the “Number of Ia+ cells per mm^2 of epidermis, batch 3” value (Ia+ Langerhans cells; dose 1.00 Nanog.) of the same substance?
Answer: Its value is 390 cells per mm^2.

Question: What about the “Number of Ia+ cells per mm^2 of epidermis, batch 4” value (Ia+ Langerhans cells; dose 1.00 Nanog.) of the same substance?
Answer: Its value is 412 cells per mm^2.

Question: What about the “Number of Ia+ cells per mm^2 of epidermis, Mean” value (Ia+ Langerhans cells; dose 1.00 Nanog.) of the same substance?
Answer: The value was 396.00 cells per mm^2.

Question: What about the “Ia+ cells %” value (Ia+ Langerhans cells; dose 1.00 Nanog.) of the same substance?
Answer: Its value is 286%.

Question: And the “Number of Thy 1.2+ cells per mm^2 of epidermis, batch 1” value ([1]; dose 0.10 Nanog.)?
Answer: Its value is 197 cells per mm^2.

Question: What about the “Number of Thy 1.2+ cells per mm^2 of epidermis, batch 2” value ([1]; dose 0.10 Nanog.) of the same substance?
Answer: The value was 180 cells per mm^2.

Question: And the “Number of Thy 1.2+ cells per mm^2 of epidermis, batch 3” value ([1]; dose 0.10 Nanog.)?
Answer: The value was 192 cells per mm^2.

Question: And the “Number of Thy 1.2+ cells per mm^2 of epidermis, batch 4” value ([1]; dose 0.10 Nanog.)?
Answer: Its value is 207 cells per mm^2.

Question: And the “Number of Thy 1.2+ cells per mm^2 of epidermis, Mean” value ([1]; dose 0.10 Nanog.)?
Answer: The value was 194.00 cells per mm^2.

Question: And the “Thy 1.2+ cells % T” value ([1]; dose 0.10 Nanog.)?
Answer: Its value is 120%.

Question: And the “Number of Thy 1.2+ cells per mm^2 of epidermis, batch 1” value ([1]; dose 0.50 Nanog.)?
Answer: Its value is 200 cells per mm^2.

Question: What about the “Number of Thy 1.2+ cells per mm^2 of epidermis, batch 2” value ([1]; dose 0.50 Nanog.) of the same substance?
Answer: The value was 208 cells per mm^2.

Question: And the “Number of Thy 1.2+ cells per mm^2 of epidermis, batch 3” value ([1]; dose 0.50 Nanog.)?
Answer: Its value is 199 cells per mm^2.

Question: And the “Number of Thy 1.2+ cells per mm^2 of epidermis, batch 4” value ([1]; dose 0.50 Nanog.)?
Answer: Its value is 219 cells per mm^2.

Question: And the “Number of Thy 1.2+ cells per mm^2 of epidermis, Mean” value ([1]; dose 0.50 Nanog.)?
Answer: The value was 206.50 cells per mm^2.

Question: And the “Thy 1.2+ cells % T” value ([1]; dose 0.50 Nanog.)?
Answer: The value was 134%.

Question: And the “Number of Thy 1.2+ cells per mm^2 of epidermis, batch 1” value ([1]; dose 1.00 Nanog.)?
Answer: The value was 214 cells per mm^2.

Question: And the “Number of Thy 1.2+ cells per mm^2 of epidermis, batch 2” value ([1]; dose 1.00 Nanog.)?
Answer: The value was 210 cells per mm^2.

Question: And the “Number of Thy 1.2+ cells per mm^2 of epidermis, batch 3” value ([1]; dose 1.00 Nanog.)?
Answer: The value was 208 cells per mm^2.

Question: What about the “Number of Thy 1.2+ cells per mm^2 of epidermis, batch 4” value ([1]; dose 1.00 Nanog.) of the same substance?
Answer: Its value is 226 cells per mm^2.

Question: What about the “Number of Thy 1.2+ cells per mm^2 of epidermis, Mean” value ([1]; dose 1.00 Nanog.) of the same substance?
Answer: Its value is 214.50 cells per mm^2.

Question: And the “Thy 1.2+ cells % T” value ([1]; dose 1.00 Nanog.)?
Answer: Its value is 143%.

Question: Which results are given for “A-Gln-Gly-Gly-Ser-Asn-NH2 (QGGSN; not fully specified (N-terminus, C-terminus)) [ETF No. IX, A not specified; lyophilized in Dextran for the test]”?
Answer: Stimulation % (46-47 KD keratin synthesis) ([2]; Concentration 10^-6 M): 90%; Stimulation % (46-47 KD keratin synthesis) ([2]; Concentration 10^-8 M): 95%; Stimulation % (46-47 KD keratin synthesis) ([2]; Concentration 10^-10 M): 86%; Stimulation % (46-47 KD keratin synthesis) ([2]; Concentration 10^-12 M): 41%; Stimulation % (keratohyalin synthesis) ([3]; Concentration 10^-6 M): 62%; Keratin/protein mean (keratohyalin synthesis, Table III) ([3]; Concentration 10^-6 M): 5.97; Stimulation % (keratohyalin synthesis) ([3]; Concentration 10^-8 M): 83%; Keratin/protein mean (keratohyalin synthesis, Table III) ([3]; Concentration 10^-8 M): 6.75; Stimulation % (keratohyalin synthesis) ([3]; Concentration 10^-10 M): 39%; Keratin/protein mean (keratohyalin synthesis, Table III) ([3]; Concentration 10^-10 M): 5.13; Stimulation % (keratohyalin synthesis) ([3]; Concentration 10^-12 M): 38%; Keratin/protein mean (keratohyalin synthesis, Table III) ([3]; Concentration 10^-12 M): 5.11

Question: Which “Stimulation % (46-47 KD keratin synthesis)” value ([2]; Concentration 10^-6 M) does the source give for thymopoietin [reference compound] here?
Answer: The value was 19%.

Question: What about the “Stimulation % (keratohyalin synthesis)” value ([3]; Concentration 10^-6 M) of the same substance?
Answer: Its value is 35%.

Question: And the “Keratin/protein mean (keratohyalin synthesis, Table III)” value ([3]; Concentration 10^-6 M)?
Answer: Its value is 4.99.
